According to patent US20020115678A1, “Compounds, compositions and methods for treating antibiotic-resistant infections” (priority 1996, published 2002):

Legend:
Mycobacteria = assay: Susceptibility tests for Mycobacteria (standard methods, National Institutes of Health); type: cell-based
Experimental: (§1) The MBC was determined as follows: After 48 hours incubation, tubes without visible growth were vortexed. A sample of 0.01 ml was taken from each tube and streaked on trypticase soy agar plates. After 24 hours, incubation, the number of colonies was counted. The amount of agent required to kill 99.9% of bacterial inoculum in the inoculum was determined as the MBC. Susceptibility tests for Mycobacteria were performed according to standard methods at the national Institutes of Health.

[1] = test system: Staphylococcus aureus methicillin-resistant wild type T67738; assay: Susceptibility test (MIC, microtiter serial dilution), methicillin-resistant S. aureus; type: cell-based; conditions: MIC by serial dilution in Mueller-Hinton broth
Experimental: (§2) The strains were streaked on blood agar plates (trypticase soy broth containing 5% sheep cells). A single colony was isolated and grown in Mueller-Hinton Broth (MHB) as recommended by the national Committee for Clinical Laboratory Standards for rapidly growing bacteria. Candida species and related fungi were isolated in a similar manner on brain-heart infusion agar (BHI).
(§3) The antibiotic susceptibility profile of each strain was determined using standard microtiter dilution plates obtained from the Clinical Microbiology Laboratory at Ohio State University Hospitals. The Inocula were prepared by suspending a 4 hour log phase growth in MHB visually equal in turbidity of an 0.5 McFarland standard. Inocula were further diluted and added to microdilution trays to achieve a final density of approximately 1×10^5 CFU/ml. The trays were incubated for 16 to 20 hours at 35° C. The highest dilution at which wells remained clear was considered to be the minimum inhibitory concentration (MIC).
(§4) The MIC and minimum bacterial concentration (MBC) of the strains to the active agents were determined by two-fold dilutions in Mueller-Hinton broth. Susceptibility tests for ATCC-obtained microorganisms and clincal isolates of gram positive bacteria including methicillin-susceptible and resistant Staphylococci, Streptococci, Pneumococci and gram negative bacteria, including Enterobacteriaceae, Pseudomonas, Hemophilus and Neisseria, were performed in microtiter plates as described above. The MIC and MBC were determined after 48 hours incubation at 35-37° C. A sample of 0.01 ml was taken from each clear well at the MIC end-point and streaked on trypticase soy agar plates. After 24 hours incubation, the number of colonies was counted. The amount of the agent required to kill 99.9% of the bacteria was determined as the MBC. Susceptibility tests for ATCC isolates of Candida and other fungi were performed in BHI broth according to the NCCLS method. Two ml of MHB containing serial dilutions of the agents compounds were added to 13×100 mm tubes. An inoculum of 0.1 ml (prepared as described above) was then added to each tube. The final inoculum was approximately […]. The tubes were incubated at 35° C. in ambient air and read at 24 hours. The highest dilution at which the tubes remained clear was considered to be the MIC.
as §1
(§5) Compounds of the invention were dissolved in 1 ml of methanol and stored in aliquots at −70° C. They were diluted in Mueller-Hinton broth for final screening. Compositions were tested in 0.1 ml volumes by serial dilution in microtiter plates against Staphylococcus aureus methicillin-sensitive ATCC 29213 and the methicillin-resistant wild type T67738, as described above. The T67738 was resistant to most antimicrobial drugs, including ciprofloxacin.

[2] = test system: Staphylococcus aureus methicillin-sensitive ATCC 29213; assay: Susceptibility test (MIC, microtiter serial dilution), methicillin-sensitive S. aureus; type: cell-based; conditions: methicillin-sensitive S. aureus ATCC 29213; MIC by serial dilution in Mueller-Hinton broth
Experimental: as §2, §3, §4, §1, §5

bacterial pathogens = conditions: background statement; cited from earlier work

Row | Compound | Effective Concentration Mycobacteria (Mycobacteria) [µg/mL] | Effective Concentration S. aureous Resist. [1] [µg/mL] | Effective Concentration S. aureous Sens. [2] | activity against bacterial pathogens in vitro (bacterial pathogens)
1 | CCC1CN2CCC1CC2C(O)c1ccnc2ccc(OC)cc12 (centres unmarked) [#112312] | 128 | 1.56 | 1.56 µg/mL | –
2 | OC(c1cc(-c2ccc(Cl)cc2)nc2c(Cl)cc(Cl)cc12)C1CCCCN1 (centres unmarked) [#7936] | – | <0.8 | <0.8 µg/mL | –
3 | COc1ccc2nc(-c3ccc(Cl)c(Cl)c3)cc(C(O)C3CCCCN3)c2c1 (centres unmarked) [#259398] | – | 1.56 | 1.56 µg/mL | –
4 | OC(c1cc(-c2ccccc2)nc2c(Cl)cc(Cl)cc12)C1CCCCN1 (centres unmarked) [#7930] | 2 | 1.6 | <.08 µg/mL | –
5 | CCCC(CCC)NCC(O)c1cc(-c2ccc(Cl)cc2)nc(-c2ccc(Cl)cc2)c1 (centres unmarked) [#153136] | – | 3.0 | – | –
6 | OC(c1cc(-c2ccc(Cl)cc2)nc2ccccc12)C1CCCCN1 (centres unmarked) [#7929] | – | 6.25 | 6.25 µg/mL | –
7 | OC(c1cc(-c2ccc(C(F)(F)F)cc2)nc(-c2ccc(C(F)(F)F)cc2)c1)C1CCCCN1 (centres unmarked) [#153141] | 0.5 | – | – | –
8 | O=C(c1cc(-c2ccccc2)nc2c(Cl)cc(Cl)cc12)C1CCCCN1 (centres unmarked) [#169446] | 2 | 1.6 | 1.6 µg/mL | –
9 | OC(c1cc(C(F)(F)F)nc2c(C(F)(F)F)cccc12)C1CCCCN1 (centres unmarked) [Mefloquine] | – | – | – | some activity
10 | COc1cc(C(F)(F)F)c2nc(C(F)(F)F)cc(C(O)C3CCCCN3)c2c1 (centres unmarked) [#159314] | – | 3.1 | 6.25 µg/mL | –
